Data on 5 molecules can be found in ChEMBL document CHEMBL1132471, “Vancomycin binding to low-affinity ligands: delineating a minimum set of interactions necessary for high-affinity binding” (J Med Chem, 1999).

Assay [1] can be described thus: Affinity for Vancomycin (Exp I).
Assay [2] in a line: Affinity for Vancomycin (Exp II).

In assay [1], `CC(=O)O[C@H](C)C(=O)O` displayed an Affinity of 40 M⁻¹.

For `CC(=O)O`, the results for the Affinity in assay [1] and in assay [2] were 15 M⁻¹ and 30 M⁻¹, respectively.

In assay [2], `CC(=O)N[C@H](C)C(=O)O` returned an Affinity of 300 M⁻¹. Same read-out and setting: then `CC(=O)NCC(=O)O`, with 80 M⁻¹; and `C[C@@H](O)C(=O)O`, with 80 M⁻¹.
